One block for each compound: values may come before it.
How the values were obtained:
Format in all cases: physicochemical
[1] = Elution test of drug from cylindrical molded body (paddle, UV absorbance); settings: ethenzamide; molded body 50 MPa; paddle 100 rpm, 900 mL Pharmacopeia I liquid
Description: Cellulose particles A were used. A commercially available ibuprofen (an active component indicated as being almost completely insoluble in water according to Japanese Pharmacopeia 14) was dissolved in polyethylene glycol (Macrogol 400 from Sanyo Kasei Co., Ltd.) at a proportion of 1:5, and then diluted by 10 with ethanol. This was added to the cellulose particles A to result in 10% by weight. The mixture was stirred in a die. A die (from KIKUSUI SEISAKUSHO LTD, made with SUS 2, 3) was filled with 0.2 g of the obtained powder, and a circular flat punch (from KIKUSUI SEISAKUSHO LTD, made with SUS 2, 3) with a diameter of 0.8 cm was used to apply compression until the pressure reached 100 MPa (PCM-1A (Commercial Name) from AIKOH ENGINEERING CO., LTD. was used with a compression rate of 1 cm/min). The cylindrical molded body was released after the target pressure was maintained for 10 seconds. Fluid component effusion on the surface of the molded body was observed, drug elution from the cylindrical molded body (elution tests were conducted with a JASCO Corporation ultraviolet absorption spectrometer at paddle speed 100 rpm and 900 mL of Pharmacopeia I liquid, in which fluid absorbance was measured and the elution rate was calculated 3 minutes after) and disintegration time of the cylindrical molded bodies was measured. […]

[2] = Repose angle (Sugihara type device); settings: low fluidity component model without cellulose
Description: Using a Sugihara type repose angle measuring device (slit size: depth 10 mm×width 50 mm×height 140 mm, a protractor was placed at the position of 50 mm width), the dynamic self-fluidity was measured when cellulose powder was dropped to the slit at 3 g/minute using a quantitative feeder. The angle between the bottom of the device and the top layer of the cellulose powder is the repose angle.

[3] = Reactivity to a drug: aspirin decomposition rate after storage mixed with cellulose; settings: 60° C., two weeks, closed vial
Description: (12) Reactivity to a Drug
Aspirin (Japanese Pharmacopeia crystalline aspirin was treated with a small grinder φ0.5 mm, with 1 pass treatment) and each cellulose sample was mixed at 5/5 (total 0.5 g) in dry conditions and then placed in a glass sample vial and mixed. The vial was stored in an oven (Made by Tabai Espec Corp. Perfect Oven (Commercial Name)) with the cap tightly closed (at 60° C.) for two weeks and then the decomposition rate was measured. Ferric (III) […] sulfate 12 hydrate 8 g was placed in a 100 ml measuring flask, mixed with pure water to bring the volume up to 100 ml to make a coloring test solution. 0.25 g of stored aspirin (total 0.5 g of the blended powder) was introduced to a 50 ml measuring flask, mixed with ethanol to bring the volume up to 50 ml and the mixture was shaken for 5 minutes. Thus obtained ethanol solution was filtered, the filtrate was transferred to a 100 ml measuring flask and ethanol was added to bring the volume up to 100 ml. One milliliter of this ethanol solution and 1 ml of the coloring test solution described above were introduced to a 50 ml measuring flask, mixed with pure water to bring the volume up to 50 ml and the absorption was measured at the wavelength of 532 nm using a UV absorption meter (made by JASCO Corporation). The decomposition rate was calculated from the following formula. […]

Elution rate after 1 hour [1]: 9%
Structure (SMILES): CCOc1ccccc1C(N)=O [Comparative Example 76, ethenzamide]

Repose angle Before the addition of cellulose [2]: 55 °
Structure (SMILES): CC(=O)Nc1ccc(O)cc1 [Component model C, Acetaminophen]

aspirin decomposition rate [3]: 15%
Structure (SMILES): CC(=O)Oc1ccccc1C(=O)O [aspirin, Aspirin]

From patent US8771742B2, “Porous cellulose aggregate and molding composition thereof” (Asahi Kasei Chemicals Corporation, priority 2005, dated 2014)
